Assay [1] concerns agonist-dependent nuclear export of HDAC5. Put plainly: HDAC5 nuclear export assay (GFP-HDAC5, Cellomics imaging). Type of assay: cell-based. The conditions noted are these: Rattus norvegicus, Ventricular myocyte, 2 h, read-out: Inhibitory Activity HDAC. Here is the method:
Compounds are evaluated in the HDAC5 nuclear export assay, a 384-well plate-based assay that enables high throughput screening (HTS) to identify small molecules that block agonist-dependent nuclear export of HDAC5. […] Neonatal rat ventricular myocytes (NRVMs) are infected with GFP-HDAC5 encoding virus and plated on gelatin-coated 384-well dishes. […] Following two hours of stimulation, cells are fixed and GFP-HDAC5 localization quantified using the Cellomics system, which provides a read-out of relative fluorescence intensity in the cytoplasmic versus nuclear compartment.

The target of a further assay is T1, protein kinase D3 (PKD3) (Homo sapiens, UniProt O94806).
T1 construct: This assay is performed with full length wild-type enzyme that is purchased from Invitrogen; purchased Invitrogen
T1 sequence (O94806 1-890): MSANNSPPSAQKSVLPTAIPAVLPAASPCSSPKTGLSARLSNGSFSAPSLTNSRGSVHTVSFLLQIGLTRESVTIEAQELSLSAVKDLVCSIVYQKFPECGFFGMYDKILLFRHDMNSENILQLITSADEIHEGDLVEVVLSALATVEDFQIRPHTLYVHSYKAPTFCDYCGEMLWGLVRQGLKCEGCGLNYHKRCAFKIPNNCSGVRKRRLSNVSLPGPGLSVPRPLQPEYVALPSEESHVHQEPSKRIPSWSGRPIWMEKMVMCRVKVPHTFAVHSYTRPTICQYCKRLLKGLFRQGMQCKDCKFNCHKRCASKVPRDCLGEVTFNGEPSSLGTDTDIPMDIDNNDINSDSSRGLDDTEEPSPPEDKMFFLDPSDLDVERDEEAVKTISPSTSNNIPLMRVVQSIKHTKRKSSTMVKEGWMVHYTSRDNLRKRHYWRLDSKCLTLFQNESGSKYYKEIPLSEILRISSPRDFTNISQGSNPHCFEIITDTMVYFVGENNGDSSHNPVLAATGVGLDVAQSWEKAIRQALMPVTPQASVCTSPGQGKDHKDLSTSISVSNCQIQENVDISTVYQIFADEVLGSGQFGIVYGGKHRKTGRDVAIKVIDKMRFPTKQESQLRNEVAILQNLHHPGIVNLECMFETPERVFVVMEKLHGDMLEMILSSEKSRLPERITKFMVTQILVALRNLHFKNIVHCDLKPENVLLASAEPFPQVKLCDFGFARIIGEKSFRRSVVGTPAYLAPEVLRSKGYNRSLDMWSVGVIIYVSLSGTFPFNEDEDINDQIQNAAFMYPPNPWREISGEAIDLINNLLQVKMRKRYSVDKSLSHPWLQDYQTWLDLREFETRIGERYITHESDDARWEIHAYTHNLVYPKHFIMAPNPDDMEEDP
Put plainly: PKD3 TR-FRET (LANCE) kinase assay. The format is biochemical. The conditions noted are these: full length wild-type enzyme, 20 μM ATP, syntide-2 substrate; read-out: Inhibitory Activity PKD3. The text has this:
The assay to measure protein kinase D3 (PKD3) activity is a time-resolved fluorescence resonance transfer (TR-FRET) assay using PerkinElmer's LANCE™ technology. In this case, a biotinylated syntide-2 peptide is used as the substrate in this reaction. Phosphorylation of the syntide-2 substrate is detected by a specific antibody that recognizes the phosphorylated peptide. A second fluorophore, APC, is conjugated to streptavidin that binds the biotinylated syntide-2 peptide. […] Therefore, when the europium labeled secondary antibody binds on the phosphorylated peptide, it is brought into close contact with the APC and excites this fluorophore.
This assay is performed with full length wild-type enzyme that is purchased from Invitrogen. The reaction buffer consists of 35 mM Tris-HCl pH7.5, 5 mM MgCl2, 0.02% Tween-20, 20 μM ATP, 1 mM DTT and 0.2 μg/mL PKD3 enzyme. The enzyme reaction is initiated by the addition of 2 μM syntide-2 peptide substrate and the reaction carried out for 50 minutes at room temperature. The reaction is stopped by a stop/detection buffer consisting of 50 mM EDTA, 0.18 mg/mL rabbit polyclonal anti-phospho Syntide-2 antibody, 0.5 nM europium labeled anti-rabbit IgG and 10 nM streptavidin conjugated APC. After a one hour incubation with the stop/detection buffer, the reaction is read on an Envision 2100 Reader using a LANCE™ Eu/APC dual protocol. […] IC50 values are calculated using an Activity Base (IDBS) software program.
A general note: In TR-FRET formats the signal depends on donor and acceptor labels being close together.

Where [2] appears, read: neonatal rat ventricular myocytes, PGF2α stimulation, two hours.

Read-outs that look alike come from different tables or passages of the source.

As to `FC(F)(F)c1cc(-c2ccnc(NC3CCCCC3)c2)nc(N2CCNCC2)c1` [Cyclohexyl-(6-piperazin-1-yl-4-trifluoromethyl-[2,4′]bipyridinyl-2′-yl)amine], the IC50 is 0.342 µM in assay [1] and 0.013 µM at protein kinase D3 (PKD3).

On to `c1cc(-c2cc(-c3nnco3)cc(N3CCNCC3)n2)cc(NC2CCCCC2)n1` [Cyclohexyl-(4-[1,3,4]oxadiazol-2-yl-6-piperazin-1-yl-[2,4′]bipyridinyl-2′-yl)-amine], for which the figures for the IC50 (in assay [1] (setting [2]); at protein kinase D3 (PKD3)) were 0.126 µM and 0.014 µM, respectively.

On to `O=C1NCc2c1cc(-c1ccnc(NC3CCCCC3)c1)nc2N1CCn2cnnc2C1` [6-(2-Cyclohexylamino-pyridin-4yl)-4-(5,6-dihydro-8H-[1,2,4]triazolo[4,3-a]pyrazin-7-yl)-2,3-dihydro-pyrrolo[3,4-c]pyridin-1-one], for which the figures for the IC50 (in assay [1] (setting [2]); on protein kinase D3 (PKD3)) were greater than 1 µM and 0.074 µM, respectively.

For the molecule `Fc1ccc(Nc2cc(-c3ccnc(NC4CCCCC4)c3)nc(N3CCNCC3)c2)cc1` [N*2′*-Cyclohexyl-N*4*-(4-fluoro-phenyl)-6-piperazin-1-yl-[2,4′]bipyridinyl-4,2′-diamine], the IC50 in assay [1] (setting [2]) is 0.423 µM; on protein kinase D3 (PKD3) it was 0.252 µM.

Take `Nc1cc(-c2ccnc(NC3CCCCC3)c2)nc(N2CCNCC2)c1` [N*2′*-Cyclohexyl-6-piperazin-1-yl-[2,4′]bipyridinyl-4,2′-diamine]: the IC50 in assay [1] (setting [2]) is 0.421 µM; on protein kinase D3 (PKD3), 0.038 µM.

`NC(=O)c1cc(-c2ccnc(NCCc3ccc(O)cc3)c2)nc(N2CCNCC2)c1` [2′-[2-(4-Hydroxyphenyl)ethylamino]-6-piperazin-1-yl-[2,4′]bipyridinyl-4-carboxylic acid amide]: the IC50 at protein kinase D3 (PKD3) turned out to be 0.002 µM.

Turning to `O=[N+]([O-])c1cc(-c2ccnc(NC3CCCCC3)c2)nc(N2CCNCC2)c1` [Cyclohexyl-(4-nitro-6-piperazin-1-yl-[2,4′]bipyridinyl-2′-yl)-amine], the IC50 in assay [1] (setting [2]) was 0.235 µM; at protein kinase D3 (PKD3) it was 0.005 µM.

Consider `CS(=O)(=O)c1cc(-c2ccnc(NC3CCCCC3)c2)nc(N2CCNCC2)c1` [Cyclohexyl-(4-methanesulfonyl-6-piperazin-1-yl-[2,4′]bipyridinyl-2′-yl)-amine], for which the IC50 in assay [1] (setting [2]) is greater than 1 µM; at protein kinase D3 (PKD3), 0.085 µM.

Regarding `NC(=O)c1cc(-c2ccnc(NCc3ccccc3Cl)c2)nc(N2CCNCC2)c1` [2′-(2-Chlorobenzylamino-6-piperazin-1-yl-[2,4′]bipyridinyl-4-carboxylic acid amide], at protein kinase D3 (PKD3), the IC50 is 0.031 µM.

Take `COC(=O)c1ccc(-c2ccnc(NC3CCCCC3)c2)nc1N1CCNCC1` [2′-Cyclohexylamino-6-piperazin-1-yl-[2,4′]bipyridinyl-5-carboxylic acid methyl ester]: the IC50 is greater than 1 µM in assay [1] (setting [2]) and 0.166 µM on protein kinase D3 (PKD3).

Take `NC(=O)c1cc(-c2ccnc(NC3CCCCC3)c2)nc(N2CCN3CCC[C@@H]3C2)c1` [2′-Cyclohexylamino-6-(R)-hexahydro-pyrrolo[1,2-a]pyrazin-2-yl-[2,4′]bipyridinyl-4-carboxylic acid amide]: the IC50 in assay [1] (setting [2]) was determined as 0.616 µM; at protein kinase D3 (PKD3), 0.02 µM.

`N#CCNC(=O)c1ccc(-c2ccnc(NC3CCCCC3)c2)nc1N1CCNCC1` [2′-Cyclohexylamino-6-piperazin-1-yl-[2,4′]bipyridinyl-5-carbonxylic acid cyanomethyl-amide]: the IC50 was greater than 1 µM in assay [1] (setting [2]) and 0.114 µM on protein kinase D3 (PKD3).

The values are drawn from patent US20110092505A1, “ORGANIC COMPOUNDS” (priority 2008, published 2011).
